Legend:
[1] = Induction of anti-CD3 antibodies-stimulated human T cell activation at 1 uM assessed fold increase in IL-2 secretion measured by ELISA assay; assay type: functional, T cell line; further: reference of the scale not given here
[2] = Induction of anti-CD3 antibodies-stimulated human T cell activation at 1 uM assessed fold increase in CD25 expression measured by ELISA assay; assay type: functional, T cell line; further: reference of the scale not given here
[3] = molecular target: E3 ubiquitin-protein ligase CBL-B (Homo sapiens, UniProt Q13191); assay: Inhibition of N-terminal Avi-tagged human CBL-B (36 to 427 residues) incubated with 60 nM Src kinase for 1.5 hrs followed by incubation with fluorescently labeled UbcH5B-Ub for 1 hr and measured by TR-FRET assay; assay type: single protein
[4] = Induction of anti-CD3/CD28 antibodies-stimulated human T cell activation at 1 uM assessed fold increase in IL-2 secretion measured by ELISA assay; assay type: functional, T cell line
[5] = Induction of anti-CD3/CD28 antibodies-stimulated human T cell activation at 0.3 uM assessed fold increase in IL-2 secretion measured by ELISA assay; assay type: functional, T cell line
[6] = Induction of anti-CD3/CD28 antibodies-stimulated human T cell activation at 1 uM assessed fold increase in CD25 expression measured by ELISA assay; assay type: functional, T cell line
[7] = Induction of anti-CD3/CD28 antibodies-stimulated human T cell activation at 0.3 uM assessed fold increase in CD25 expression measured by ELISA assay; assay type: functional, T cell line

Chain of E3 ubiquitin-protein ligase CBL-B (Q13191 whole entry, the tested form may be a part): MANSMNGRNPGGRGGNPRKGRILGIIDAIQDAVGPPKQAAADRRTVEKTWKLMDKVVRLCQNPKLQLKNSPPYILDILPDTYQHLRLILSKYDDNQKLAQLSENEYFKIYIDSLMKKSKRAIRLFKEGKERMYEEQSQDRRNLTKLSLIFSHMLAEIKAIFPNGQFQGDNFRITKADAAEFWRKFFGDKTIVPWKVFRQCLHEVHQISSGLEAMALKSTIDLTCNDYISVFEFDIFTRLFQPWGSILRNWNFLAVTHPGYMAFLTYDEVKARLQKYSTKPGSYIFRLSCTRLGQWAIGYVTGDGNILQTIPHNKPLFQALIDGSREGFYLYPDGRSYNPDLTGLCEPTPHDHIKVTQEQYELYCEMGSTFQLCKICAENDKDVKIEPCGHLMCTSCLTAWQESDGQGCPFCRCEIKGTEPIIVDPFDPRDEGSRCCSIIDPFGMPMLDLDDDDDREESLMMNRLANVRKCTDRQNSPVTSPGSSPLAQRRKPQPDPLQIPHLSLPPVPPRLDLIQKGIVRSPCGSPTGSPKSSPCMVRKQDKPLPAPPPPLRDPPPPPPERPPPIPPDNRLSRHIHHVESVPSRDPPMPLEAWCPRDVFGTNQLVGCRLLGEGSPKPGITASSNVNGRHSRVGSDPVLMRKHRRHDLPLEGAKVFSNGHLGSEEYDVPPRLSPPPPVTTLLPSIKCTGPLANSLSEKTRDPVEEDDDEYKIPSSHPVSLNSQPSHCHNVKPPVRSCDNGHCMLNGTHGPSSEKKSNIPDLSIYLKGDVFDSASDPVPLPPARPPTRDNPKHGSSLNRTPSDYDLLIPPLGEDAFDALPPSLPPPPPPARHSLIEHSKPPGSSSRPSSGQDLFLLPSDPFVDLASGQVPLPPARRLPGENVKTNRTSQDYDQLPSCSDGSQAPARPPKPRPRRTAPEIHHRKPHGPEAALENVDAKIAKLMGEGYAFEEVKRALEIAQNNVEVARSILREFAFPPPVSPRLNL

Row | Compound | fold change (FC) [1] | fold change (FC) [2] | IC50 [3] [µM] | fold change (FC) [4] | fold change (FC) [5] | fold change (FC) [6] | fold change (FC) [7]
1 | CCOC1CCCN(Cc2cc3c(c(C(F)(F)F)c2)CN(c2cccc(C4(Cc5nncn5C)COC4)c2)C3=O)C1 (stereo unspecified) | >=0.201 | >=1.001 | < 0.1 | >=7.5 | >=7.5 | 1.51 | 1.51
2 | Cn1cnnc1CC1(c2cccc(NC(=O)c3cc(CN4C[C@H]5C[C@H]5C4)cc(C4CC4)n3)c2)COC1 | >=0.201 | >=1.001 | < 0.1 | >=7.5 | >=7.5 | 1.31 | 1.31
3 | C[C@@H](c1cc2c(c(C(F)(F)F)c1)CN(c1cccc(C3(Cc4nncn4C)COC3)c1)C2=O)N1CCC2(CC1)CC2 | >=0.201 | >=1.001 | < 0.1 | >=7.5 | >=7.5 | 1.01 | 1.01
4 | Cn1cnnc1CC1(c2cccc(N3Cc4c(cc(N5CCNC6(CC6)C5)cc4C(F)(F)F)C3=O)c2)COC1 | 0.101 | >=1.001 | < 0.1 | >=7.5 | >=7.5 | 1.31 | 1.31
5 | Cc1cc(C(=O)Nc2cccc(C(C)(C)Cc3nncn3C)c2)nc(C2CC2)n1 | 0.101 | 0.801 | < 0.1 | >=7.5 | 5 | 1.31 | 1.31
6 | Cn1cnnc1CC1(c2cccc(N3Cc4c(cc(C5CCOC5)cc4C(F)(F)F)C3=O)c2)COC1 (stereo unspecified) | 0.101 | 0.801 | < 0.1 | 5 | 2.51 | 1.01 | 1.01
7 | Cn1cnnc1CC1(c2cccc(N3Cc4c(cc(CN5CCC[C@@H](F)C5)cc4C(F)(F)F)C3=O)c2)COC1 | >=0.201 | >=1.001 | < 0.1 | >=7.5 | >=7.5 | 1.31 | 1.31
8 | C[C@H]1CN(Cc2cc3c(c(C(F)(F)F)c2)CN(c2cccc(C4(Cc5nncn5C)COC4)c2)C3=O)CCO1 | >=0.201 | 0.601 | < 0.1 | >=7.5 | 5 | 1.31 | 1.31
9 | Cc1cc(C(=O)Nc2cccc([C@@]3(Cc4nncn4C)CCOC3)c2)nc(C2CC2)n1 | 0.101 | 0.801 | < 0.1 | 2.51 | 2.51 | 1.01 | 1.01
10 | Cn1cnnc1CC1(c2cccc(N3Cc4c(cc(CN5CCCc6c5cnn6C)cc4C(F)(F)F)C3=O)c2)COC1 | >=0.201 | >=1.001 | < 0.1 | >=7.5 | 5 | 1.01 | 1.01
11 | Cc1conc1CC1(c2cccc(N3Cc4c(cc(CN5CCC6(CC6)C5)cc4C(F)(F)F)C3=O)c2)COC1 | >=0.201 | >=1.001 | < 0.1 | >=7.5 | >=7.5 | 1.31 | 1.31
12 | CN1CC2CC(C1)N2c1cc2c(c(C(F)(F)F)c1)CN(c1cccc([C@@](C)(F)C(F)(F)c3nncn3C)c1)C2=O | 0.051 | 0.801 | < 0.1 | 2.51 | 1.01 | 1.01 | 1.01
13 | Cn1cnnc1CC1(c2cccc(N3Cc4c(cc(CN5CCC(C#N)CC5)cc4C(F)(F)F)C3=O)c2)COC1 | >=0.201 | >=1.001 | < 0.1 | >=7.5 | 5 | 1.31 | 1.31
14 | CO[C@@H]1CCN(Cc2cc3c(c(C(F)(F)F)c2)CN(c2cccc(C4(Cc5nncn5C)COC4)c2)C3=O)C[C@@H]1F (relative stereo) | >=0.201 | >=1.001 | < 0.1 | >=7.5 | >=7.5 | 1.31 | 1.31
15 | Cn1cnnc1C[C@@]1(c2cccc(N3Cc4c(cc(CN5CCC6(CC6)C5)cc4C(F)(F)F)C3=O)c2)CCOC1 | 0.101 | 0.801 | < 0.1 | >=7.5 | 2.51 | 1.01 | 1.01
16 | Cn1cnnc1CC1(c2cccc(N3Cc4c(cc(CN5CCc6ccccc6C5)cc4C(F)(F)F)C3=O)c2)COC1 | >=0.201 | >=1.001 | < 0.1 | >=7.5 | 5 | 1.31 | 1.01
17 | Cn1cnnc1CC1(c2cccc(N3Cc4c(cc(CN5CCCC56COC6)cc4C(F)(F)F)C3=O)c2)COC1 | 0.151 | 0.801 | < 0.1 | 5 | 1.01 | 1.31 | 1.01
18 | Cn1cnnc1[C@@H](F)C1(c2cccc(N3Cc4c(cc(CN5CCCCC5)cc4C(F)(F)F)C3=O)c2)COC1 | 0.101 | >=1.001 | < 0.1 | >=7.5 | >=7.5 | 1.51 | 1.31
19 | Cn1cnnc1CC1(c2cccc(N3Cc4c(cc(CN5CCC6(CC5)CC6)cc4C(F)(F)F)C3=O)c2)COC1 | >=0.201 | >=1.001 | < 0.1 | >=7.5 | >=7.5 | 1.51 | 1.51
20 | Cn1cnnc1CC1(c2cccc(N3Cc4c(cc(C5CCC5)cc4C(F)(F)F)C3=O)c2)COC1 | 0.101 | 0.801 | < 0.1 | 2.51 | 2.51 | 1.31 | 1.01
21 | CN1CCC(=O)C(Cc2cc3c(c(C(F)(F)F)c2)CN(c2cccc(C4(Cc5nncn5C)COC4)c2)C3=O)C1 (stereo unspecified) | >=0.201 | >=1.001 | < 0.1 | >=7.5 | >=7.5 | 1.01 | 1.01
22 | Cn1cnnc1CC1(c2cccc(N3Cc4c(cc(C(O)c5ccccc5)cc4C(F)(F)F)C3=O)c2)COC1 (stereo unspecified) | >=0.201 | >=1.001 | < 0.1 | >=7.5 | 5 | 1.31 | 1.31
23 | Cn1cnnc1CC1(c2cccc(N3Cc4c(cc(OC5CC5)cc4C(F)(F)F)C3=O)c2)COC1 | 0.151 | >=1.001 | < 0.1 | 2.51 | 1.01 | 1.01 | 1.01
24 | Cn1cnnc1CC1(c2cccc(N3Cc4c(cc(CN5CC6CC5CO6)cc4C(F)(F)F)C3=O)c2)COC1 (stereo unspecified) | 0.051 | 0.801 | < 0.1 | 5 | 2.51 | 1.01 | 1.01
25 | CC1C(C(F)(F)F)CCN1Cc1cc2c(c(C(F)(F)F)c1)CN(c1cccc(C3(Cc4nncn4C)COC3)c1)C2=O (stereo unspecified) | 0.051 | >=1.001 | < 0.1 | >=7.5 | 5 | 1.31 | 1.01
26 | C[C@@H]1CN(C)CCN1c1cc2c(c(C(F)(F)F)c1)CN(c1cccc(C3(Cc4nncn4C)COC3)c1)C2=O | 0.151 | >=1.001 | < 0.1 | >=7.5 | 2.51 | 1.31 | 1.01
27 | Cn1cnnc1CC1(c2cccc(N3Cc4c(cc(N5CC6(CCC6(F)F)C5)cc4C(F)(F)F)C3=O)c2)COC1 | <=0.05 | 0.601 | < 0.1 | 2.51 | 1.01 | 1.01 | 1.01
28 | Cn1cnnc1CC1(c2cccc(N3Cc4c(cc(CN5CCC6(CC6)C(F)(F)C5)cc4C(F)(F)F)C3=O)c2)COC1 | >=0.201 | >=1.001 | < 0.1 | >=7.5 | 2.51 | 1.31 | 1.31

From ChEMBL document CHEMBL5050844 (2019)
